Patent publication US20250282749A1 (Tango Therapeutics, Inc., priority 2022, published 2025)
Each block holds one compound with its values, some of them ahead of it.

What was measured:
Assay type in all cases: cell-based
[1] = system: HAP1 MTAP-deleted cell line; assay: viability assay for the MTAP-deleted cell line; conditions: Homo sapiens
[2] = system: PRMT5 (SDMA) in HAP1 MTAP-deleted cell line; assay: SDMA in-cell western assay, HAP1 MTAP-deleted cell line; conditions: for IC50 / IC90: Homo sapiens, SDMA in-cell western, HAP1 MTAP-deleted (MTAP-null) cell line; for Hap1 MTAP intact/deleted ratio: ratio of SDMA in-cell western IC50 in HAP1 MTAP-intact to IC50 in HAP1 MTAP-deleted cell line
Text: (§1) HAP1 MTAP-intact is a cell line in which endogenous levels of MTAP are expressed, and HAP1 MTAP-deleted is an MTAP-null cell line.

[3] = system: PRMT5 (SDMA) in HAP1 MTAP-intact cell line; assay: SDMA in-cell western assay, HAP1 MTAP-intact cell line; conditions: Homo sapiens, HAP1 MTAP-intact cell line (endogenous MTAP), read-out: Hap 1 MTAP intact IC50
Text: as §1

Compound: C[C@@H]1CN(C(=O)C(=O)Nc2cncc3cn[nH]c23)[C@@H](c2ccccc2)CN1C(=O)C(C)(C)CN(C)C [Compound 68, 2-((2S,5R)-4-(3-(dimethylamino)-2,2-dimethylpropanoyl)-5-methyl-2-phenylpiperazin-1-yl)-2-oxo-N-(1H-pyrazolo[4,3-c]pyridin-7-yl)acetamide]
- IC50 [1]: 100 to 1000 nM
- IC50 [2]: 5 to 50 nM
- IC90 [2]: 75 to 125 nM
- Hap1 MTAP intact/deleted ratio [2]: A (an IC50 ratio greater than or equal to 30 fold)
- IC50 [3]: > 50 nM

Compound: COc1ncc(NC(=O)C(=O)N2C[C@@H](C)N(C(=O)C(C)(C)CN(C)C)C[C@@H]2c2ccccc2)cc1C(N)=O [Compound 69]
- IC50 [1]: 100 to 1000 nM
- IC50 [2]: 5 to 50 nM
- IC90 [2]: > 125 nM
- Hap1 MTAP intact/deleted ratio [2]: A (an IC50 ratio greater than or equal to 30 fold)
- IC50 [3]: > 50 nM

Compound: CCc1cc(NC(=O)C(=O)N2C[C@@H](C)N(C(=O)C(C)C)C[C@@H]2c2ccc(C)cc2)cnc1N [Compound 71, N-(6-amino-5-ethylpyridin-3-yl)-2-((2S,5R)-4-isobutyryl-5-methyl-2-(p-tolyl)piperazin-1-yl)-2-oxoacetamide]
- IC50 [1]: < 100 nM
- IC50 [2]: 5 to 50 nM
- IC90 [2]: 75 to 125 nM
- Hap1 MTAP intact/deleted ratio [2]: B (an IC50 ratio greater than or equal to 15 fold but lower than 30 fold)
- IC50 [3]: > 50 nM

Compound: C[C@@H]1CN(C(=O)C(=O)Nc2cnc(N)c(C3COC3)c2)[C@@H](c2ccc(F)cc2)CN1C(=O)C1(C(F)(F)F)CC1 [Compound 72, N-(6-amino-5-(oxetan-3-yl)pyridin-3-yl)-2-((2S,5R)-2-(4-fluorophenyl)-5-methyl-4-(1-(trifluoromethyl)cyclopropanecarbonyl)piperazin-1-yl)-2-oxoacetamide]
- IC50 [1]: < 100 nM
- IC50 [2]: 5 to 50 nM
- IC90 [2]: 75 to 125 nM
- Hap1 MTAP intact/deleted ratio [2]: A (an IC50 ratio greater than or equal to 30 fold)
- IC50 [3]: > 50 nM

Compound: CCc1cc(NC(=O)C(=O)N2C[C@H](C)N(C(=O)CC3CC3)C[C@H]2c2ccc(F)cc2)cnc1N [Compound 73, N-(6-amino-5-ethyl-3-pyridyl)-2-[(2R,5S)-4-(2-cyclopropylacetyl)-2-(4-fluorophenyl)-5-methyl-piperazin-1-yl]-2-oxo-acetamide]
- IC50 [1]: < 100 nM
- IC50 [2]: 5 to 50 nM
- IC90 [2]: 75 to 125 nM
- Hap1 MTAP intact/deleted ratio [2]: B (an IC50 ratio greater than or equal to 15 fold but lower than 30 fold)
- IC50 [3]: > 50 nM

Compound: Cc1cc(NC(=O)C(=O)N2C[C@@H](C)N(C(=O)C(C)C)C[C@@H]2c2ccc(F)c(Cl)c2)cnc1N [Compound 74, N-(6-amino-5-methylpyridin-3-yl)-2-((2S,5R)-2-(3-chloro-4-fluorophenyl)-4-isobutyryl-5-methylpiperazin-1-yl)-2-oxoacetamide]
- IC50 [1]: 100 to 1000 nM
- IC50 [2]: 5 to 50 nM
- IC90 [2]: 75 to 125 nM
- Hap1 MTAP intact/deleted ratio [2]: A (an IC50 ratio greater than or equal to 30 fold)
- IC50 [3]: > 50 nM

Compound: CC(C)C(=O)N1C[C@H](c2ccc(F)c(F)c2)N(C(=O)C(=O)Nc2cnc(N)c(C3CC3)c2)C[C@H]1C [Compound 75, N-(6-amino-5-cyclopropylpyridin-3-yl)-2-((5R)-2-(3,4-difluorophenyl)-4-isobutyryl-5-methylpiperazin-1-yl)-2-oxoacetamide]
- IC50 [1]: < 100 nM
- IC50 [2]: 5 to 50 nM
- IC90 [2]: > 125 nM
- Hap1 MTAP intact/deleted ratio [2]: C (an IC50 ratio of less than 15 fold)
- IC50 [3]: > 50 nM

Compound: Cc1cc(NC(=O)C(=O)N2C[C@@H](C)N(C(=O)C3(C(F)(F)F)CC3)C[C@@H]2c2ccc(N3CCN(C)CC3)cc2)cnc1N [Compound 77, N-(6-amino-5-methylpyridin-3-yl)-2-((2S,5R)-5-methyl-2-(4-(4-methylpiperazin-1-yl)phenyl)-4-(1-(trifluoromethyl)cyclopropanecarbonyl)piperazin-1-yl)-2-oxoacetamide]
- IC50 [1]: < 100 nM
- IC50 [2]: < 5 nM
- IC90 [2]: < 75 nM
- Hap1 MTAP intact/deleted ratio [2]: B (an IC50 ratio greater than or equal to 15 fold but lower than 30 fold)
- IC50 [3]: 5 to 50 nM

Compound: Cc1cc(NC(=O)C(=O)N2C[C@@H](C)N(C(=O)C3(C(F)(F)F)CC3)C[C@@H]2c2ccccc2)cnc1N [Compound 78, N-(6-amino-5-methylpyridin-3-yl)-2-((2S,5R)-5-methyl-2-phenyl-4-(1-(trifluoromethyl)cyclopropanecarbonyl)piperazin-1-yl)-2-oxoacetamide]
- IC50 [1]: < 100 nM
- IC50 [2]: 5 to 50 nM
- IC90 [2]: > 125 nM
- Hap1 MTAP intact/deleted ratio [2]: B (an IC50 ratio greater than or equal to 15 fold but lower than 30 fold)
- IC50 [3]: > 50 nM

Compound: C[C@@H]1CN(C(=O)C(=O)Nc2cnc(N)c3cn[nH]c23)[C@@H](c2ccc(F)cc2)CN1C(=O)C1(C(F)(F)F)CC1 [Compound 79]
- IC50 [1]: < 100 nM
- IC50 [2]: < 5 nM
- IC90 [2]: < 75 nM
- Hap1 MTAP intact/deleted ratio [2]: C (an IC50 ratio of less than 15 fold)
- IC50 [3]: 5 to 50 nM

The next lines start with results.

- IC50 [2]: 5 to 50 nM
- IC90 [2]: > 125 nM
- IC50 [3]: > 50 nM
Compound: Cc1cc(NC(=O)C(=O)N2C[C@H](C)N(CC(C)C)C[C@H]2c2ccc(F)cc2)cnc1N [Compound 80, N-(6-amino-5-methyl-3-pyridyl)-2-[(2R,5S)-2-(4-fluorophenyl)-4-isobutyl-5-methyl-piperazin-1-yl]-2-oxo-acetamide]
- IC50 [1]: 100 to 1000 nM
- Hap1 MTAP intact/deleted ratio [2]: C (an IC50 ratio of less than 15 fold)

- IC50 [2]: 5 to 50 nM
- IC90 [2]: 75 to 125 nM
- IC50 [3]: > 50 nM
Compound: CCc1cc(NC(=O)C(=O)N2C[C@@H](C)N(C(=O)C3(C(F)(F)F)CC3)C[C@@H]2c2ccccc2)cnc1N [Compound 81, N-(6-amino-5-ethylpyridin-3-yl)-2-((2S,5R)-5-methyl-2-phenyl-4-(1-(trifluoromethyl)cyclopropanecarbonyl)piperazin-1-yl)-2-oxoacetamide]
- IC50 [1]: < 100 nM
- Hap1 MTAP intact/deleted ratio [2]: B (an IC50 ratio greater than or equal to 15 fold but lower than 30 fold)

- IC50 [2]: 5 to 50 nM
- IC90 [2]: 75 to 125 nM
- IC50 [3]: > 50 nM
Compound: COc1ncc(NC(=O)C(=O)N2C[C@@H](C)N(C(=O)C(C)C)C[C@@H]2c2ccc(F)cc2)cc1C(N)=O [Compound 83, 5-[[2-[(2S,5R)-2-(4-fluorophenyl)-5-methyl-4-(2-methylpropanoyl)piperazin-1-yl]-2-oxo-acetyl]amino]-2-methoxy-pyridine-3-carboxamide]
- IC50 [1]: 100 to 1000 nM
- Hap1 MTAP intact/deleted ratio [2]: A (an IC50 ratio greater than or equal to 30 fold)

- IC50 [2]: 5 to 50 nM
- IC90 [2]: 75 to 125 nM
- IC50 [3]: > 50 nM
Compound: CCc1cc(NC(=O)C(=O)N2C[C@@H](C)N(C(=O)C3(C(F)(F)F)CC3)C[C@@H]2c2ccc(C)cc2)cnc1N [Compound 85, N-(6-amino-5-ethylpyridin-3-yl)-2-((2S,5R)-5-methyl-2-(p-tolyl)-4-(1-(trifluoromethyl)cyclopropanecarbonyl)piperazin-1-yl)-2-oxoacetamide]
- IC50 [1]: < 100 nM
- Hap1 MTAP intact/deleted ratio [2]: B (an IC50 ratio greater than or equal to 15 fold but lower than 30 fold)

- IC50 [2]: 5 to 50 nM
- IC90 [2]: < 75 nM
- IC50 [3]: > 50 nM
Compound: CC(C)C(=O)N1C[C@H](c2ccc(F)cc2)N(C(=O)C(=O)Nc2cnc(N)c(C3CC3)c2)C[C@H]1C [Compound 86, N-(6-amino-5-cyclopropylpyridin-3-yl)-2-((2S,5R)-2-(4-fluorophenyl)-4-isobutyryl-5-methylpiperazin-1-yl)-2-oxoacetamide]
- IC50 [1]: < 100 nM
- Hap1 MTAP intact/deleted ratio [2]: C (an IC50 ratio of less than 15 fold)

- IC50 [2]: < 5 nM
- IC90 [2]: > 125 nM
- IC50 [3]: > 50 nM
Compound: CCc1cc(NC(=O)C(=O)N2C[C@@H](C)N(C(=O)C(C)C)C[C@@H]2c2ccc(F)c(Cl)c2)cnc1N [Compound 87, N-(6-amino-5-ethylpyridin-3-yl)-2-((2S,5R)-2-(3-chloro-4-fluorophenyl)-4-isobutyryl-5-methylpiperazin-1-yl)-2-oxoacetamide]
- IC50 [1]: < 100 nM
- Hap1 MTAP intact/deleted ratio [2]: A (an IC50 ratio greater than or equal to 30 fold)

- IC50 [2]: > 50 nM
- IC90 [2]: > 125 nM
- IC50 [3]: > 50 nM
Compound: COc1ncc(NC(=O)C(=O)N2C[C@H](C)N(C(=O)C(C)C)C[C@H]2c2ccc(F)cc2)cc1C(N)=O [Compound 88, 5-[[2-[(2R,5S)-2-(4-fluorophenyl)-5-methyl-4-(2-methylpropanoyl)piperazin-1-yl]-2-oxo-acetyl]amino]-2-methoxy-pyridine-3-carboxamide]
- IC50 [1]: > 1000 nM
- Hap1 MTAP intact/deleted ratio [2]: C (an IC50 ratio of less than 15 fold)

- IC50 [2]: < 5 nM
- IC90 [2]: < 75 nM
- IC50 [3]: > 50 nM
Compound: CCc1cc(NC(=O)C(=O)N2C[C@@H](C)N(C(=O)C(C)C)C[C@@H]2c2ccc(N3CCN(C)CC3)cc2)cnc1N [Compound 89, N-(6-amino-5-ethylpyridin-3-yl)-2-((2S,5R)-4-isobutyryl-5-methyl-2-(4-(4-methylpiperazin-1-yl)phenyl)piperazin-1-yl)-2-oxoacetamide]
- IC50 [1]: < 100 nM
- Hap1 MTAP intact/deleted ratio [2]: A (an IC50 ratio greater than or equal to 30 fold)

- IC50 [2]: 5 to 50 nM
- IC90 [2]: > 125 nM
- IC50 [3]: > 50 nM
Compound: Cc1cc(NC(=O)C(=O)N2C[C@@H](C)N(C(=O)C(C)C)C[C@@H]2c2cccc(Cl)c2)cnc1N [Compound 90, N-(6-amino-5-methylpyridin-3-yl)-2-((2S,5R)-2-(3-chlorophenyl)-4-isobutyryl-5-methylpiperazin-1-yl)-2-oxoacetamide]
- IC50 [1]: < 100 nM
- Hap1 MTAP intact/deleted ratio [2]: B (an IC50 ratio greater than or equal to 15 fold but lower than 30 fold)
